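Test compounds were applied to cells in 96-well plates for 48 hours at 5 doses. Definition used: TGI = concentration required for complete inhibition of growth.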
Columns and labels:
Assay in all cases: growth of human tumour cells (NCI), 48 h
CAKI-1 renal = tested on: CAKI-1 renal
MDA-N = tested on: MDA-N
NCI/ADR-RES ovarian = tested on: NCI/ADR-RES ovarian
SF-295 CNS = tested on: SF-295 CNS
HCT-15 colon = tested on: HCT-15 colon
SR leukemia = tested on: SR leukemia
MDA-MB-435 = tested on: MDA-MB-435
RXF 393 renal = tested on: RXF 393 renal
CCRF-CEM leukemia = tested on: CCRF-CEM leukemia
HOP-62 NSCLC = tested on: HOP-62 NSCLC
SK-MEL-5 melanoma = tested on: SK-MEL-5 melanoma
SK-MEL-2 melanoma = tested on: SK-MEL-2 melanoma
OVCAR-3 ovarian = tested on: OVCAR-3 ovarian
HOP-92 NSCLC = tested on: HOP-92 NSCLC
NCI-H23 lung = tested on: NCI-H23 lung
HCT-116 colon = tested on: HCT-116 colon
SK-MEL-28 melanoma = tested on: SK-MEL-28 melanoma
KM12 colon = tested on: KM12 colon
SNB-75 CNS = tested on: SNB-75 CNS
MDA-MB-231 breast = tested on: MDA-MB-231 breast
SW-620 colon = tested on: SW-620 colon
OVCAR-5 ovarian = tested on: OVCAR-5 ovarian
HT29 colon = tested on: HT29 colon
IGROV1 ovarian = tested on: IGROV1 ovarian
OVCAR-8 ovarian = tested on: OVCAR-8 ovarian
K-562 leukemia = tested on: K-562 leukemia
SNB-19 CNS = tested on: SNB-19 CNS
DU-145 prostate = tested on: DU-145 prostate
UACC-257 melanoma = tested on: UACC-257 melanoma
MOLT-4 leukemia = tested on: MOLT-4 leukemia
A498 renal = tested on: A498 renal
U251 CNS = tested on: U251 CNS
SK-OV-3 ovarian = tested on: SK-OV-3 ovarian
786-0 renal = tested on: 786-0 renal
HCC-2998 colon = tested on: HCC-2998 colon
TK-10 renal = tested on: TK-10 renal
LOX IMVI melanoma = tested on: LOX IMVI melanoma
UACC-62 melanoma = tested on: UACC-62 melanoma
ACHN renal = tested on: ACHN renal
NCI-H522 lung = tested on: NCI-H522 lung
PC-3 prostate = tested on: PC-3 prostate
SF-268 CNS = tested on: SF-268 CNS
M14 melanoma = tested on: M14 melanoma
HL-60(TB) leukemia = tested on: HL-60(TB) leukemia
NCI-H460 lung = tested on: NCI-H460 lung
HS 578T breast = tested on: HS 578T breast
RPMI-8226 leukemia = tested on: RPMI-8226 leukemia
MCF7 breast = tested on: MCF7 breast
SN12C renal = tested on: SN12C renal
EKVX NSCLC = tested on: EKVX NSCLC
A549 NSCLC = tested on: A549 NSCLC
NCI-H226 lung = tested on: NCI-H226 lung
SF-539 CNS = tested on: SF-539 CNS
COLO 205 colon = tested on: COLO 205 colon
MALME-3M melanoma = tested on: MALME-3M melanoma
T-47D breast = tested on: T-47D breast
OVCAR-4 ovarian = tested on: OVCAR-4 ovarian
UO-31 renal = tested on: UO-31 renal
BT-549 breast = tested on: BT-549 breast

## Cn1c2ccccc2c2ccc3c(c21)C(=O)c1ccc2c4ccccc4n(C)c2c1C3=O
CAKI-1 renal
  TGI: > 100 µM
MDA-N
  TGI: > 100 µM
NCI/ADR-RES ovarian
  TGI: > 100 µM
SF-295 CNS
  TGI: > 100 µM
HCT-15 colon
  TGI: > 100 µM
SR leukemia
  TGI: > 100 µM
MDA-MB-435
  TGI: > 100 µM
RXF 393 renal
  TGI: > 100 µM
CCRF-CEM leukemia
  TGI: > 100 µM
HOP-62 NSCLC
  TGI: > 100 µM
SK-MEL-5 melanoma
  TGI: > 100 µM
SK-MEL-2 melanoma
  TGI: > 100 µM
OVCAR-3 ovarian
  TGI: > 100 µM
HOP-92 NSCLC
  TGI: > 100 µM
NCI-H23 lung
  TGI: > 100 µM
HCT-116 colon
  TGI: > 100 µM
SK-MEL-28 melanoma
  TGI: > 100 µM
KM12 colon
  TGI: > 100 µM
SNB-75 CNS
  TGI: > 100 µM
MDA-MB-231 breast
  TGI: > 100 µM
SW-620 colon
  TGI: > 100 µM
OVCAR-5 ovarian
  TGI: > 100 µM
HT29 colon
  TGI: > 100 µM
IGROV1 ovarian
  TGI: > 100 µM
OVCAR-8 ovarian
  TGI: > 100 µM
K-562 leukemia
  TGI: > 100 µM
SNB-19 CNS
  TGI: > 100 µM
DU-145 prostate
  TGI: > 100 µM
UACC-257 melanoma
  TGI: > 100 µM
MOLT-4 leukemia
  TGI: > 100 µM
A498 renal
  TGI: > 100 µM
U251 CNS
  TGI: > 100 µM
SK-OV-3 ovarian
  TGI: > 100 µM
786-0 renal
  TGI: > 100 µM
HCC-2998 colon
  TGI: > 100 µM
TK-10 renal
  TGI: > 100 µM
LOX IMVI melanoma
  TGI: > 100 µM
UACC-62 melanoma
  TGI: > 100 µM
ACHN renal
  TGI: > 100 µM
NCI-H522 lung
  TGI: > 100 µM
PC-3 prostate
  TGI: > 100 µM
SF-268 CNS
  TGI: > 100 µM
M14 melanoma
  TGI: > 100 µM
HL-60(TB) leukemia
  TGI: > 100 µM
NCI-H460 lung
  TGI: > 100 µM
HS 578T breast
  TGI: > 100 µM
RPMI-8226 leukemia
  TGI: > 100 µM
MCF7 breast
  TGI: > 100 µM
SN12C renal
  TGI: > 100 µM
EKVX NSCLC
  TGI: > 100 µM
A549 NSCLC
  TGI: > 100 µM
NCI-H226 lung
  TGI: > 100 µM
SF-539 CNS
  TGI: > 100 µM
COLO 205 colon
  TGI: > 100 µM
MALME-3M melanoma
  TGI: > 100 µM
T-47D breast
  TGI: > 100 µM
OVCAR-4 ovarian
  TGI: > 100 µM
UO-31 renal
  TGI: > 100 µM
BT-549 breast
  TGI: > 100 µM

## CN(O)C(=O)/C=C/c1ccc(OCc2cccc(Cl)c2)cc1
CAKI-1 renal
  TGI: 62.6 µM
MDA-N
  TGI: > 100 µM
NCI/ADR-RES ovarian
  TGI: 46.7 µM
SF-295 CNS
  TGI: > 100 µM
HCT-15 colon
  TGI: 29.1 µM
SR leukemia
  TGI: 38.4 µM
MDA-MB-435
  TGI: > 100 µM
RXF 393 renal
  TGI: > 100 µM
CCRF-CEM leukemia
  TGI: 65.6 µM
HOP-62 NSCLC
  TGI: > 100 µM
SK-MEL-5 melanoma
  TGI: 78.2 µM
SK-MEL-2 melanoma
  TGI: 82.7 µM
OVCAR-3 ovarian
  TGI: > 100 µM
HOP-92 NSCLC
  TGI: > 100 µM
NCI-H23 lung
  TGI: 49 µM
HCT-116 colon
  TGI: 32.9 µM
SK-MEL-28 melanoma
  TGI: > 100 µM
KM12 colon
  TGI: 41.3 µM
SNB-75 CNS
  TGI: > 100 µM
MDA-MB-231 breast
  TGI: > 100 µM
SW-620 colon
  TGI: > 100 µM
OVCAR-5 ovarian
  TGI: > 100 µM
HT29 colon
  TGI: 34.9 µM
IGROV1 ovarian
  TGI: 60.8 µM
OVCAR-8 ovarian
  TGI: 32.8 µM
K-562 leukemia
  TGI: > 100 µM
SNB-19 CNS
  TGI: > 100 µM
DU-145 prostate
  TGI: 54.8 µM
UACC-257 melanoma
  TGI: > 100 µM
MOLT-4 leukemia
  TGI: 39.6 µM
A498 renal
  TGI: 66 µM
U251 CNS
  TGI: > 100 µM
SK-OV-3 ovarian
  TGI: > 100 µM
786-0 renal
  TGI: 47.2 µM
HCC-2998 colon
  TGI: 72.7 µM
TK-10 renal
  TGI: > 100 µM
LOX IMVI melanoma
  TGI: 30.5 µM
UACC-62 melanoma
  TGI: 31.3 µM
ACHN renal
  TGI: 29.9 µM
NCI-H522 lung
  TGI: > 100 µM
PC-3 prostate
  TGI: > 100 µM
SF-268 CNS
  TGI: > 100 µM
M14 melanoma
  TGI: > 100 µM
HL-60(TB) leukemia
  TGI: 52 µM
NCI-H460 lung
  TGI: 43.3 µM
HS 578T breast
  TGI: > 100 µM
RPMI-8226 leukemia
  TGI: 96.9 µM
MCF7 breast
  TGI: > 100 µM
SN12C renal
  TGI: 55.9 µM
EKVX NSCLC
  TGI: > 100 µM
A549 NSCLC
  TGI: 63.5 µM
NCI-H226 lung
  TGI: 73.9 µM
SF-539 CNS
  TGI: > 100 µM
COLO 205 colon
  TGI: > 100 µM
T-47D breast
  TGI: 66.5 µM
OVCAR-4 ovarian
  TGI: 86.6 µM
UO-31 renal
  TGI: 23.5 µM
BT-549 breast
  TGI: 85.3 µM
